Data taken from patent EP0882732B1, “Taxoid derivative and method of producing thereof” (Ensuiko Sugar Refining Company, Limited, priority 1997, dated 1998).
Values after ≈ are worked out from the molar mass of the structure shown.

Columns and labels:
[1] = I.Ringer et al., J. Natl. Cancer Inst., 83, 288 (1991); cited from earlier work
[2] = system: tubulin (a main constituting protein of the microtubule); assay: Tubulin polymerization-promoting / depolymerization-inhibiting activity (absorbance at 350 nm); type: biochemical; details: for Depolymerization-inhibiting activity / Polymerization-promoting activity: relative activity, paclitaxel taken as 100, 5µM; for Depolymerization-inhibiting activity: absorbance at 350 nm 5 minutes after addition of calcium chloride; for Polymerization-promoting activity: tubulin, 37°C, 15 minutes, absorbance at 350 nm
Experimental: Next, each of the above-described samples is mixed with tubulin (a main constituting protein of the microtubule) and allowed to react at 37°C for 15 minutes. Absorbance at 350 nm of the reaction solution was measured at 2, 5, 10 and 15 minutes after initiation of the reaction. Also, after the reaction ended, calcium chloride was added and. 5 minutes after its addition, absorbance at 350 nm was again measured. From each measured value the relative activity of each sample was determined such that polymerization-promoting activity and depolymerization - inhibiting activity were taken as 100, and the results are shown in Table 2.

[3] = Solubility in water (stirred in water, filtrate analysed by HPLC)
Experimental: After stirring, the supernatant was filtered by a membrane filter (0.45µm) and a filtate was analyzed by HPLC.

[4] = Stability in aqueous solution; type: physicochemical; details: decomposed to paclitaxel
Description: As clearly shown in the Table compared with paclitaxel, the solubility of paclitaxel derivatives show strikingly high values.

[5] = in water, 10 mg in 5 ml water, stirred for 18 hours, filtered 0.45µm, HPLC

| SMILES | solubility of docetaxel in water relative to paclitaxel [1] [times] | Depolymerization-inhibiting activity [2] | Polymerization-promoting activity [2] | depolymerization-inhibiting activity compared with paclitaxel ([2]; statement in words, comparison with paclitaxel) | solubility in water relative to paclitaxel [3] [times] | Solubility [3, 5] [µg/mL] | Solubility ([3]; 18 h) [µg/mL] | solubility at 18 h ([3]; water, thermodynamic from solid) [µg/mL] | stability in aqueous solutions [4] |
| --- | --- | --- | --- | --- | --- | --- | --- | --- | --- |
| CC(=O)O[C@@]12CO[C@@H]1C[C@H](O)[C@@]1(C)C(=O)[C@H](O)C3=C(C)[C@@H](OC(=O)[C@H](O)[C@@H](NC(=O)OC(C)(C)C)c4ccccc4)C[C@@](O)([C@@H](OC(=O)c4ccccc4)[C@H]21)C3(C)C [docetaxel] | 1.3 |  |  |  |  |  |  |  |  |
| CC(=O)O[C@H]1C(=O)[C@]2(C)[C@@H](OC(=O)COC3O[C@H](CO)[C@@H](O)[C@H](O)[C@H]3O)C[C@H]3OC[C@@]3(OC(C)=O)[C@H]2[C@H](OC(=O)c2ccccc2)[C@]2(O)C[C@H](OC(=O)[C@H](O)[C@@H](NC(=O)c3ccccc3)c3ccccc3)C(C)=C1C2(C)C (some centres unmarked) [7-S-paclitaxel, Glucosyloxyacetyl-7-paclitaxel] |  | 225 | 91.9 | more than twice as potent as that of paclitaxel | 36.8 | 14.7 (≈ 13.7 µM) |  |  |  |
| CC(=O)O[C@H]1C(=O)[C@@]2(C)[C@H]([C@H](OC(=O)c3ccccc3)[C@]3(O)C[C@H](OC(=O)[C@H](O)[C@@H](NC(=O)c4ccccc4)c4ccccc4)C(C)=C1C3(C)C)[C@]1(OC(C)=O)CO[C@@H]1C[C@@H]2O [Paclitaxel, reference compound] |  | 100 | 100 |  |  |  | 0.4 (≈ 0.468 µM) | 0.4 (≈ 0.468 µM) |  |
| CC(=O)O[C@H]1C(=O)[C@@]2(C)[C@H]([C@H](OC(=O)c3ccccc3)[C@]3(O)C[C@H](OC(=O)[C@H](OC(=O)COC4O[C@H](CO)[C@@H](O)[C@H](O)[C@H]4O)[C@@H](NC(=O)c4ccccc4)c4ccccc4)C(C)=C1C3(C)C)[C@]1(OC(C)=O)CO[C@@H]1C[C@@H]2O (some centres unmarked) [2'-S-paclitaxel, Glucosyloxyacetyl-2'-paclitaxel] |  | 100 | 52.7 |  | 76.5 | 30.6 (≈ 28.5 µM) |  |  | unstable in aqueous solutions |
| CC(=O)O[C@H]1C(=O)[C@]2(C)[C@@H](OC(=O)COC3O[C@H](CO)[C@@H](O)[C@H](O)[C@H]3O)C[C@H]3OC[C@@]3(OC(C)=O)[C@H]2[C@H](OC(=O)c2ccccc2)[C@]2(O)C[C@H](OC(=O)[C@H](OC(=O)COC3O[C@H](CO)[C@@H](O)[C@H](O)[C@H]3O)[C@@H](NC(=O)c3ccccc3)c3ccccc3)C(C)=C1C2(C)C (some centres unmarked) [2',7-S-paclitaxel, Diglucosyloxyacetyl-2',7-paclitaxe] |  | 77.7 | 40.5 |  | 121 | 48.4 (≈ 37.4 µM) |  |  | unstable in aqueous solutions |
